Measurements as given in US10576145B2, “CD200 inhibitors and methods of use thereof” (REGENTS OF THE UNIVERSITY OF MINNESOTA, priority 2014, dated 2020).
“Also recorded” adds a separate entry of the source.

Assays:
GL261 tumor bearing mice = test: GL261 glioma model: tumor lysate vaccine +/- antagonist, tumor growth by imaging and survival; assay type: in vivo, C57BL/6 mice; settings: for Tumor growth: GL261, tumor lysate vaccine + antagonist vs tumor lysate alone or saline, weekly imaging; for Survival: GL261 glioma model, tumor lysate vaccine + antagonist
Protocol: FIGS. 4A-4C. FIG. 4A) GL261 tumor bearing mice were inoculated with 50 μg of antagonist 6059 one day prior to vaccination with tumor lysate (65 μg)+/−the antagonist 6059 (50 μg). FIG. 4B) Mice were imaged weekly for tumor growth. The following groups were studied: saline (1), tumor lysate (2), and tumor lysate+6059 (3). FIG. 4C) Percent survival post inoculation for saline (1), tumor lysate (2), and tumor lysate+6059 (3) groups.
FIGS. 5A-5B. FIG. 5A) GL261 tumor bearing mice were inoculated with 10 μg of 6059 on day 2 into the tumor site then with 50 μg of antagonist 6059 one day prior to vaccination with tumor lysate (65 μg)+the antagonist 6059 (50 μg). FIG. 5B) Mice were imaged weekly for tumor growth. The following groups were studied: saline (1), tumor lysate+6059 (2), and CNS+tumor lysate+6059 (3) groups.
Whether vaccination with CD200R antagonists could enhance the survival of tumor-bearing mice was also studied. […] GL261 tumor bearing mice were vaccinated weekly with saline, tumor lysates (TL) or tumor lysates+an antagonist (4004, 4013, 6059).
Tumor-bearing mice were inoculated in the brain with 10 μg of the inhibitor 6059 at the same coordinates at which the tumor was injected two days previously. This was followed by weekly injections of tumor lysate+inhibitor (FIGS. 5A-5B).
(§1) Tumors were implanted into female C57BL/6 mice (6-8 wk old) (Jackson Laboratory) and maintained in a pathogen-free facility according to the guidelines of the University of Minnesota Animal Care and Use Committee. The GL261 orthotopic transplant model was established in C57BL/6 (B6) mice by inoculation with 15,000 GL261-Luc^+ cells in 1 μl of saline. Tumors were implanted stereotactically into the right striatum; coordinates were 2.5 mm lateral, 0.5 mm anterior of bregma, and 3 mm deep from the cortical surface of the brain^19. Tumor burden was determined by bioluminescent imaging. Light emitted from the tumors was quantified using Living Image software (Xenogen) and expressed as photons per second per centimeter squared per steradian (p/s/cm^2/sr). GL261 cells for tumor lysate vaccines were cultured in neural stem cell media consisting of DMEM/F12 (1:1) with L-glutamine, sodium bicarbonate, penicillin/streptomycin (100 U/ml), B27 and N2 supplements (Life Technologies), and 0.1 mg/ml Normocin (Invivogen). Cultures were maintained at 5% 02 and supplemented with 20 ng/ml EGF and FGF semiweekly (R&D Systems, Minneapolis, Minn.). […] Mice were euthanized when tumors reached 1000 mm^3. […] Tumor cells used to establish both models were cultured in DMEM containing 10% FBS, penicillin/streptomycin (100 U/ml), and 0.1 mg/ml Normocin (Invivogen) in atmospheric oxygen.
Tumor lysates were prepared by dissociating tumor cells with non-enzymatic dissociation solution (Sigma). Cells were then washed 3 times with PBS, re-suspended in 500 μL PBS, and frozen overnight at −80° C. Cells were then lysed by five freeze/thaw cycles of freezing in liquid nitrogen and thawing in a 55° C. water bath. Cell debris was pelleted by centrifugation at 14,000 RCF, and the protein concentration of the supernatant was determined using a Bradford assay. Lysates were stored at −80° C. until use. Each vaccine was prepared on the day of vaccination and consisted of 65 μg of protein tumor lysate and 10 μg Poly:ICLC (Oncovir, Inc.), with or without 50 μg of the 6059 peptide antagonist, in a final volume of 100 μL injected intradermally in the back of the neck. For survival studies, vaccines were administered weekly starting three days post-tumor implantation for a total of 6 doses. In T cell priming experiments, CD8 T-cell priming experiments, animals were vaccinated intradermally on four consecutive days with 100 μg Ovalbumin (OVA) and 10 μg Poly:ICLC, and once more on day eleven^19.

EMT6 tumor bearing mice = test: EMT6 breast carcinoma model: tumor lysate + CpG +/- competitive inhibitor, survival; assay type: in vivo, BALB/c mice
Protocol: FIG. 6. Percent survival of mice inoculated with 1×10^6 EMT6 cells. To determine if our competitive inhibitors worked in other tumor models, mice were inoculated in the fat pad with 1×10^6 EMT6 cells. Specifically, mice were vaccinated with 65 μg of EMT6 tumor lysates+50 μg of adjuvant CpG and 50 μg of different completive inhibitors (6059, 4004, 4013 and 6061) and monitored for survival. Saline and tumor lysate+adjuvant CpG were used as controls.
FIGS. 19A-19B. Select CD200 antagonists enhance survival. (FIG. 19A) EMT6 tumor bearing mice were vaccinated with tumor lysate, CpG+/−CD200 antagonist 4004, 4013 or 6059. […] Log-rank analysis was used for survival.
as §1

splenocytes = test: Splenocytes pulsed with OVA + antagonist, OT-1 T cells added, cytokine production by flow cytometric bead array; assay type: cell-based; settings: pulsed 24 hours, 48 hours with OT-1 T cells
Protocol: FIGS. 11A-11B. Splenocytes were pulsed with OVA+an inhibitor peptide and incubated for 24 h. Following incubation, cells were washed, purified OT1 were added to wells and incubated for an additional 48 hrs then analyzed for FIG. 11A) TNFa and IL-6 production; and FIG. 11B) IL-2 and IL-17 production. Error bars indicate +/−SEM (n=4/group; *P<0.05; ** P<0.01).
Whether the different antagonists described by Gorczynski et. al. (J Surg Res 2008; 145(1): 87-96) could modulate or reverse the suppressive effects of the tumor microenvironment was also investigated. It was concluded that different antagonists either act through different CD200R isoforms or have different biological effects on the same receptor. These conclusions were supported by experiments where splenocytes were pulsed with OVA+selected CD200R antagonists (6061, 6069, 4004, 4006, 4013) for 24 hours. The splenocytes were then washed and cultured for 48 hours with the addition of OT-1 T cells. The cultures were then assessed for cytokine production using a flow cytometric bead array. […] These experiments support the hypothesis that exosomes express the CD200 protein thereby inhibiting the ability to prime a T cell response in the draining lymph nodes of glioma bearing mice. Other antagonists were similarly evaluated.

mice = test: MDSC expansion in blood of mice vaccinated with tumor lysate + CpG +/- inhibitor; assay type: in vivo; settings: tumor lysate+CpG+inhibitor vs tumor lysate+CpG, listed as P1A12
Protocol: FIG. 23. […] Mice were vaccinated as described in FIG. 4 with peptide inhibitor P1A12. Blood from mice vaccinated with tumor lysate+CpG or tumor lysate+CpG+inhibitor were analyzed for MDSC expansion.
(§2) Mice were vaccinated as described in FIGS. 4A-4C with peptide inhibitor P1A12. Blood from mice vaccinated with tumor lysate+CpG or tumor lysate+CpG+inhibitor were analyzed for MDSC expansion (FIG. 23). […] CD11b cells isolated for wild type or CD200 receptor knock out mice were pulsed with OVA+Poly:ICLC+/−P1A12 inhibitor, and scrambled inhibitor was used as a control (FIG. 24). Cells were washed and OT-I Cells were added. Supernatants were analyzed for IFN gamma following 48 hour incubation.

CD200 receptor = test: CD11b cells of wild type or CD200 receptor knock out mice pulsed with OVA+Poly:ICLC +/- P1A12, OT-I cells added, IFN gamma; assay type: cell-based; settings: wild type vs CD200 receptor knock out CD11b cells, 48 hour incubation; listed as P1A12
Protocol: FIG. 24. […] CD11b cells isolated for wild type or CD200 receptor knock out mice were pulsed with OVA+Poly:ICLC+/−P1A12 inhibitor. Scrambled inhibitor was use as a control. Cells were washed and OT-I Cells were added. A. Supernatants were analyzed for IFN gamma following 48 hour incubation.
as §2

Row | Sequence | Tumor growth (GL261 tumor bearing mice) | Survival (EMT6 tumor bearing mice) | Cytokine profile (TNFa, IL-6, IL-2, IL-17) (splenocytes) | further results
1 | LFNTFGSQKVSGT [Antagonist 4013] | tumors grow faster in mice vaccinated with saline or tumor lysate alone compared to mice vaccinated with tumor lysate plus an antagonist | results translated to a breast carcinoma (EMT6) model; also recorded: enhanced survival benefit; also recorded: significantly extended survival benefit | – | –
2 | RCSLKTSQE [Antagonist 6061] | – | significantly extended survival benefit | – | –
3 | SQKVSGTACLTLY [Antagonist 4006] | – | – | different cytokine profiles | –
4 | TASLRCSLKTSQE [Antagonist 4004] | tumors grow faster in mice vaccinated with saline or tumor lysate alone compared to mice vaccinated with tumor lysate plus an antagonist | results translated to a breast carcinoma (EMT6) model; also recorded: enhanced survival benefit; also recorded: significantly extended survival benefit | different cytokine profiles | –
5 | VTWQKKKAVSPANM [Antagonist C-A12] | – | – | – | Survival (GL261 tumor bearing mice): even greater survival; Survival (GL261 tumor bearing mice; listed as P1-A12): enhances survival; MDSC expansion in vivo (mice): inhibits MDSC expansion in vivo; Action on the CD200 receptor (IFN gamma in supernatants) (CD200 receptor): acts as an agonist for the CD200 receptor
